Reference: EP0451791A2, “Long acting liposome compositions containing peptid drugs and method for their preparation” (HOECHST AKTIENGESELLSCHAFT, priority 1990, dated 1991)

System: weiblicher Ratten
Experiment: Cycle (oestrus) suppression in female rats after s.c. injection, weekly vaginal smear (Beispiel 2)
Assay type: in vivo
Details: HOE 013 solution 60 μg daily, liposomes single dose 3200 μg HOE 013
Procedure: 2 x 1 ml der Liposomen (entspr. einer Einmalgabe von 3200 µg HOE 013) aus Beispiel 1 werden subkutan weiblichen Ratten von ca. 200 g Körpergewicht injiziert. Als Kontrolle dient eine gleiche Testgruppe von Tieren, die nur Lösungsmittel (Kochsalzlösung) erhält (Placebo) und eine Gruppe von Tieren, die mit täglichen Gaben von LHRH-Antagonist-Lösung (60 µg) (in 5 %iger Mannitlösung) behandelt wird. Die Östrussuppression der Tiere wird durch wöchentlichen Östrusabstrich überprüft. Am Tag 35 wird die Konzentration von HOE 013 im Urin gemessen und die 24 h-Ausscheidung berechnet.
Die Ergebnisse (s. Tabelle 1) zeigen, daß die Tiere der Liposomengruppe im Gegensatz zu den beiden Kontrollgruppen nach 35 Tagen noch deutlich supprimiert sind. Die Exkretionsrate am Tag 35 (4,5 µg) belegt eine signifikante Ausscheidung des Antagonisten im Falle der Liposomenpräparation. Diese Exkretionsrate ist mit der Plasmakonzentration eng korreliert.

Measured: Ratten mit Zuyklussuppression/ Ratten pro Gruppe

Ac-D-Nal-p-Cl-D-Phe-D-Trp-Ser Tyr-D-Ser (α-L-Rha)-Leu-Arg-Pro-Azagly-NH₂ [HOE 013]
0/11: Tag 1 of vaginal cytology | Tag 7 of vaginal cytology | Tag 14 of vaginal cytology | Tag 21 of vaginal cytology | Tag 28 of vaginal cytology | Tag 35 of vaginal cytology
